Values after ≈ are worked out from the molar mass of the structure shown.
Assays:
Aphidius rhopalosiphi [1] = experiment: LR50; higher = less toxic; conditions: not reported; mortality
Apis mellifera = conditions: acute; duration: 48 hours; oral; unspecified; mortality
Oncorhynchus mykiss = conditions: acute; duration: 96 hours; mortality
Mus musculus = conditions: chronic; duration: 18 months; histopathology: neoplastic
Daphnia magna = conditions: chronic/long-term; duration: 21 days; reproduction
Canidae = conditions: chronic; duration: 1 years; oral; Dog Other; clinical chemistry
Colinus virginianus = conditions: for LD50: acute, oral, mortality
Beta vulgaris = conditions: acute; duration: 14 days; other
Aphidius rhopalosiphi [2] = conditions: not reported; reproduction
Pleurozium sp. = conditions: acute; duration: 72 hours; biomass
Bibionidae = conditions: chronic/long-term; duration: 21 days; other

SMILES: Fc1ccc([C@@]2(Cn3cncn3)O[C@@H]2c2ccccc2Cl)cc1 [Epoxiconazole]
- LR50 (Aphidius rhopalosiphi [1]): > 246 g/ha
- LC50 (Tagia sp.; acute, duration: 14 days, mortality): > 1000 mg/kg
- NOEC (Tagia sp.; chronic/long-term, reproduction): 0.167 mg/kg
- LD50 (Rattus norvegicus; acute, oral, mortality): 3160 mg/kg
- NOAEL (Rattus norvegicus; reproduction developmental, reproduction): 2.3 mg/kg-day
- LD50 (Apis mellifera): > 83 µg/piece
- LC50 (Oncorhynchus mykiss): 3.14 µg/mL (≈ 9.52 µM)
- NOAEL (Mus musculus): 0.8 mg/kg-day
- NOEC (Daphnia magna): 0.63 mg/L
- NOAEL (Canidae): 1.6 mg/kg-day
- LD50 (Colinus virginianus; diet): > 5000 mg/kg
- LD50 (Colinus virginianus): > 2000 mg/kg
- NOEL (Colinus virginianus; reproduction developmental): 1 mg/kg-day
- LEL (Beta vulgaris): 250 g/ha
- LEL (Aphidius rhopalosiphi [2]): 246 g/ha
- NOEC (Pleurozium sp.): 0.0078 mg/L
- NOEC (Bibionidae): 0.0625 mg/L
